Earlier results as cited in patent publication US20070190094A1, “PESTICIDAL COMPOSITIONS CONTAINING ISOPROPYL-CONTAINING COMPOUNDS AS PESTICIDALLY ACTIVE INGREDIENTS” (ECOSMART TECHNOLOGIES, INC., priority 2006, published 2007).

Key:
[1] = tested on: hepatic microsomal oxidase enzymes; conditions: in vivo
[2] = animal studies; treatments as low as
[3] = chronic toxicity studies; increased liver weights even at the lowest doses
[4] = U.S. Environmental Protection Agency classification

## CCCCOCCOCCOCc1cc2c(cc1CCC)OCO2 [PBO, piperonyl butoxide]
[1]
  effect on hepatic microsomal oxidase enzymes: inhibit hepatic microsomal oxidase enzymes
[2]
  treatment level at which hepatocellular carcinomas were shown: 1.2%
[3]
  lowest dose at which increased liver weights were shown: 30 mg/kg/day
[4]
  EPA carcinogen class: class C possible human carcinogen
